From US8541363B2, “Pyruvamide compounds as inhibitors of dust mite group 1 peptidase allergen and their use” (St George's Hosptial Medical School, priority 2010, dated 2013)
Like-named read-outs stand apart in the source and are kept apart here.

Target: Der p 1 (Dermatophagoides pteronyssinus (European house dust mite), UniProt P08176)
Assay: Der p 1 enzyme activity assay (FRET fluorogenic substrate)
Assay type: biochemical
Procedure: The fluorogenic substrate used for measuring Der p 1 proteolytic activity was 2-aminobenzoylvalylalanylnorleucylseryl-(3-nitro)tyrosinyl aspartamide.
Test compounds were dissolved in dry DMSO and maintained at 4° C. as stock solutions until being diluted for use in screening assays. Final concentration of DMSO in all enzymatic assays was 0.5% v/v.
Reaction mixtures were assembled in a 96-well plate format (Perkin Elmer Optiplate 96F, Perkin Elmer LAS, Seer Green, Buckinghamshire, UK) using a Perkin Elmer MultiPROBE II Plus HTS EX robot with Gripper attachment. […] Dithiothreitol (DTT, 10 μL/well, 1 mM final concentration) was then added together with 10 μL of Der p 1 dissolved at 2.5 μg/mL in reaction buffer supplemented with 1 mM DTT. […] The plate was immediately transferred to a fluorescence plate reader (Perkin Elmer Fusion Alpha-FP or Perkin Elmer Envision) equipped with a temperature-controlled carrier set at 30° C. and the reaction followed by excitation/emission at 330/420 nm.
Inhibitory activity was analysed from progress curves of reactions in the presence of a range of inhibitor concentrations.
Initial velocity in each well was converted to fractional activity by Equation 1: Fractional activity=(Initial rate at inhibitor concentration[X]/Initial rate at inhibitor concentration zero)*100 Equation 1:
Then, IC50 was determined by fitting the data of fractional activity and inhibitor concentration to a 4-parameter logistic curve, using Equation 2: V=Vmin+[Vmax−Vmin]/[1+(X/IC50)Hillslope] […] Biological Data—Der p 1 Enzyme Assay

[1] = threshold stated in text, read-out: Der p 1 IC50

Sequence of Der p 1 (P08176 99-320): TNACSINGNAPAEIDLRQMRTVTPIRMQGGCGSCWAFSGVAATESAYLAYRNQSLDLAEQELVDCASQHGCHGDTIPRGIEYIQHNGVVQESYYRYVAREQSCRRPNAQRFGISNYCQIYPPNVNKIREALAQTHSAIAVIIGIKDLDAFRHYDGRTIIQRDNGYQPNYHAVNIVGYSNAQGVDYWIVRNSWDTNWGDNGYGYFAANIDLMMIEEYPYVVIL

| Compound | IC50 [1] [nM] | IC50 (Der p 1 IC50) [nM] |
| --- | --- | --- |
| CC(C)[C@H](NC(=O)[C@H](C)NC(=O)[C@@H](NC(=O)c1ccccc1S(C)(=O)=O)C(C)(C)C)C(=O)C(=O)NCc1ccccc1 [PVA-108] | < 20 |  |
| CC(C)[C@H](NC(=O)[C@H](C)NC(=O)[C@@H](NC(=O)c1ccccc1)C(C)(C)C)C(=O)C(=O)N[C@@H]1CCc2ccccc21 [PVA-109] | < 200 |  |
| CC(C)[C@H](NC(=O)[C@H](C)NC(=O)[C@@H](NC(=O)c1ccccc1)C(C)(C)C)C(=O)C(=O)N[C@H]1CCc2ccccc21 [PVA-110] | < 200 |  |
| CC(C)[C@H](NC(=O)[C@H](C)NC(=O)[C@@H](NC(=O)c1ccccc1)C(C)(C)C)C(=O)C(=O)NCC(=O)N1CCc2ccccc2C1 [PVA-111] |  | < 20 |
| CC(C)[C@H](NC(=O)[C@H](C)NC(=O)[C@@H](NC(=O)c1ccccc1)C(C)(C)C)C(=O)C(=O)NCC(=O)N1CCc2ccccc21 [PVA-112] | < 20 |  |
| CC(C)[C@H](NC(=O)[C@H](C)NC(=O)[C@H](Cc1ccccc1)NC(=O)c1n[nH]c2ccccc12)C(=O)C(=O)NCc1ccccc1 [PVA-113] | < 200 |  |
| CC(C)[C@H](NC(=O)[C@H](C)NC(=O)[C@@H](NC(=O)c1cc[nH]c(=O)c1)C(C)(C)C)C(=O)C(=O)NCc1ccccc1 [PVA-114] | < 200 |  |
| Cc1n[nH]c(C)c1C(=O)N[C@H](C(=O)N[C@@H](C)C(=O)N[C@H](C(=O)C(=O)NCc1ccccc1)C(C)C)C(C)(C)C [PVA-115] | < 200 |  |
| CC(C)[C@H](NC(=O)[C@H](C)NC(=O)[C@@H](NC(=O)c1ccccc1)C(C)(C)C)C(=O)C(=O)NC1CC1 [PVA-116] | < 20 |  |
| CNC(=O)C(=O)[C@@H](NC(=O)[C@H](C)NC(=O)[C@@H](NC(=O)c1ccccc1)C(C)(C)C)C(C)C [PVA-117] | < 200 |  |
| CC(C)[C@H](NC(=O)[C@H](C)NC(=O)[C@@H](NC(=O)c1ccccc1)C(C)(C)C)C(=O)C(N)=O [PVA-118] | < 20 |  |
| CC(C)[C@H](NC(=O)[C@H](C)NC(=O)[C@@H](NC(=O)c1ccccc1)C(C)(C)C)C(=O)C(=O)NC1CN2CCC1CC2 (stereo partly shown) [PVA-119] |  | < 200 |
| CC(C)[C@H](NC(=O)[C@H](C)NC(=O)[C@@H](NC(=O)c1ccccc1)C(C)(C)C)C(=O)C(=O)N[C@@H]1CN2CCC1CC2 [PVA-120] |  | < 200 |
| CC(C)[C@H](NC(=O)[C@H](C)NC(=O)[C@@H](NC(=O)c1ccccc1)C(C)(C)c1ccccc1)C(=O)C(=O)NCc1ccccc1 [PVA-121] | < 200 |  |
| CC(C)[C@H](NC(=O)[C@H](C)NC(=O)[C@@H](NC(=O)N1CCN(C)CC1)C(C)(C)C)C(=O)C(=O)NCc1ccccc1 [PVA-122] | < 200 |  |
| CC(C)[C@H](NC(=O)[C@H](C)NC(=O)C1Cc2ccccc2N1C(=O)c1ccccc1)C(=O)C(=O)NCc1ccccc1 (stereo partly shown) [PVA-123] | < 200 |  |
| CC(C)[C@H](NC(=O)[C@H](C)NC(=O)[C@@H](NC(=O)c1ccccc1)C(C)(C)C)C(=O)C(=O)NCc1cncn1C [PVA-124] | < 200 |  |
| CC(C)[C@H](NC(=O)[C@H](C)NC(=O)[C@@H](NC(=O)c1ccccc1)C(C)(C)C)C(=O)C(=O)N[C@H](C)C(=O)N1CCN(C)CC1 [PVA-125] | < 200 |  |
| Cc1cc(CNC(=O)C(=O)[C@@H](NC(=O)[C@H](C)NC(=O)[C@@H](NC(=O)c2ccccc2)C(C)(C)C)C(C)C)no1 [PVA-126] | < 200 |  |
| CC(C)[C@H](NC(=O)[C@H](C)NC(=O)[C@@H](NC(=O)c1ccccc1)C(C)(C)C)C(=O)C(=O)N[C@H](C(=O)N1CCN(C)CC1)C(C)C [PVA-127] | < 200 |  |
| CC(C)[C@H](NC(=O)[C@H](C)NC(=O)[C@@H](NC(=O)c1ccncc1)C(C)(C)C)C(=O)C(=O)NCc1ccccc1 [PVA-128] | < 20 |  |
| CC(C)[C@H](NC(=O)[C@H](C)NC(=O)[C@@H](N1Cc2ccccc2C1=O)C(C)(C)C)C(=O)C(=O)NCc1ccccc1 [PVA-129] | < 20 |  |

| Compound | IC50 [1] [nM] | IC50 (Der p 1 IC50) [nM] |
| --- | --- | --- |
| CC(C)[C@H](NC(=O)[C@H](C)NC(=O)[C@@H](NC(=O)c1cccc(C(=O)O)c1)C(C)(C)C)C(=O)C(=O)NCC(=O)N1CCN(C)CC1 [PVA-130] | < 20 |  |
| CC(C)[C@H](NC(=O)[C@H](C)NC(=O)[C@@H](NC(=O)c1ccc(C(=O)O)cc1)C(C)(C)C)C(=O)C(=O)NCC(=O)N1CCN(C)CC1 [PVA-131] | < 200 |  |
| CC(C)[C@H](NC(=O)[C@H](C)NC(=O)[C@@H](NC(=O)c1ccccc1)C(C)(C)C)C(=O)C(=O)N[C@H](C)c1ccccc1 [PVA-132] | < 20 |  |
| CC(C)[C@H](NC(=O)[C@H](C)NC(=O)[C@@H](NC(=O)c1ccccc1)C(C)(C)C)C(=O)C(=O)N[C@@H](C)c1ccccc1 [PVA-133] | < 200 |  |
| CC(C)[C@H](NC(=O)[C@H](C)NC(=O)[C@@H](NC(=O)c1ccccc1)C(C)(C)C)C(=O)C(=O)NCc1ccc(=O)[nH]c1 [PVA-134] | < 20 |  |
| CC(C)[C@H](NC(=O)[C@H](C)NC(=O)[C@@H](NC(=O)c1ccccc1)C(C)(C)C)C(=O)C(=O)NCc1ccc(S(N)(=O)=O)cc1 [PVA-135] | < 20 |  |
| CC(C)[C@H](NC(=O)[C@H](C)NC(=O)[C@@H](NC(=O)c1ccccc1C(=O)O)C(C)(C)C)C(=O)C(=O)NCC(=O)N1CCN(C)CC1 [PVA-136] | < 20 |  |
| CC(C)[C@H](NC(=O)[C@H](C)NC(=O)[C@H](Cc1cccc2ccccc12)NC(=O)c1ccccc1)C(=O)C(=O)NCC(=O)N1CCN(C)CC1 [PVA-137] | < 20 |  |
| CC(C)[C@H](NC(=O)[C@H](C)NC(=O)[C@H](Cc1cccc2ccccc12)NC(=O)c1cccc2ccccc12)C(=O)C(=O)NCC(=O)N1CCN(C)CC1 [PVA-138] | < 200 |  |
| CC(C)[C@H](NC(=O)[C@H](C)NC(=O)C1CCCN1C(=O)c1ccccc1)C(=O)C(=O)NCC(=O)N1CCN(C)CC1 (stereo partly shown) [PVA-140] | < 2000 |  |
| Cc1cc(C(=O)N[C@H](C(=O)N[C@@H](C)C(=O)N[C@H](C(=O)C(=O)NC2CC2)C(C)C)C(C)(C)C)[nH]n1 [PVA-141] | < 200 |  |
| CC(C)[C@H](NC(=O)[C@H](C)NC(=O)[C@@H](NC(=O)c1ccccc1)C(C)(C)c1ccccc1)C(=O)C(=O)NC1CC1 [PVA-142] | < 200 |  |
| CC(C)[C@H](NC(=O)[C@H](C)NC(=O)[C@@H](NC(=O)c1ccccc1)C(C)(C)c1ccccc1)C(=O)C(N)=O [PVA-143] | < 20 |  |
| CC(C)[C@H](NC(=O)[C@H](C)NC(=O)[C@@H](NC(=O)c1ccnc2ccccc12)C(C)(C)C)C(=O)C(=O)NC1CC1 [PVA-144] | < 20 |  |
| CC(C)[C@H](NC(=O)[C@H](C)NC(=O)C1CCCN1C(=O)c1ccccc1)C(=O)C(=O)NCC(=O)N1CCN(C)CC1 (stereo partly shown) [PVA-145] | < 200 |  |
| CC(C)[C@H](NC(=O)[C@H](C)NC(=O)[C@@H](NC(=O)c1ccccc1)C12CC3CC(CC(C3)C1)C2)C(=O)C(=O)NCC(=O)N1CCN(C)CC1 [PVA-146] |  | < 20 |
| CC(C)[C@H](NC(=O)[C@H](C)NC(=O)[C@@H](NC(=O)c1ccnc2ccccc12)C12CC3CC(CC(C3)C1)C2)C(=O)C(=O)NCC(=O)N1CCN(C)CC1 [PVA-147] | < 20 |  |
| Cc1cc(C(=O)N[C@H](C(=O)N[C@@H](C)C(=O)N[C@H](C(=O)C(N)=O)C(C)C)C(C)(C)C)[nH]n1 [PVA-148] | < 200 |  |
| CC(C)[C@H](NC(=O)[C@H](C)NC(=O)[C@@H](NC(=O)c1cccc2[nH]ncc12)C(C)(C)C)C(=O)C(=O)NCc1ccccc1 [PVA-149] | < 20 |  |
| CC(C)[C@H](NC(=O)[C@H](C)NC(=O)[C@@H](NC(=O)c1cccc2ncccc12)C(C)(C)C)C(=O)C(=O)NCc1ccccc1 [PVA-150] | < 20 |  |
| Cc1ccccc1C[C@H](NC(=O)c1ccncc1)C(=O)N[C@@H](C)C(=O)N[C@H](C(=O)C(=O)NCc1ccccc1)C(C)C [PVA-151] | < 20 |  |
